# Test results as given in PubChem BioAssay AID1745844 (Carcinogenic Potency Database (CPDB), 2022).
# The source made the active and inactive calls. How the calls were made is not given here.
# Tested on: rodent lifetime carcinogenesis bioassay, tumor incidence TD50
# Assay: chronic cancer bioassays in animals – CPDB, compiled studies (AID 1745844)
compound,measurement,setting,value
O=NN1CCCC1c1cccnc1 (centres undefined),TD50,"hamster, strain Syrian Golden, females, in drinking water, site: respiratory system, lesion: papilloma, dosed 31 weeks, study length 96 weeks",11.5 mg/kg/day
same,TD50,"hamster, strain Syrian Golden, males, in drinking water, site: liver, lesion: angiosarcoma, dosed 31 weeks, study length 96 weeks",34.4 mg/kg/day
same,TD50,"hamster, strain Syrian Golden, males, in drinking water, site: respiratory system, lesion: papilloma, dosed 31 weeks, study length 96 weeks",10.1 mg/kg/day
CCCNC(=O)NS(=O)(=O)c1ccc(Cl)cc1,carcinogen call,"mouse, strain B6C3F1, females, in feed, site: any site (literature study), lesion: several types, types named in the paper, dosed 104 weeks, study length 104 weeks",negative (inactive)
same,TD50,"mouse, strain B6C3F1, females, in feed, site: lung, lesion: alveolar/bronchiolar adenoma + alveolar/bronchiolar carcinoma, dosed 104 weeks, study length 104 weeks",1440 mg/kg/day
same,carcinogen call,"mouse, strain B6C3F1, males, in feed, site: any site (literature study), lesion: several types, types named in the paper, dosed 104 weeks, study length 104 weeks",negative (inactive)
same,carcinogen call,"rat, strain Fischer 344, females, in feed, site: any site (literature study), lesion: several types, types named in the paper, dosed 104 weeks, study length 104 weeks",negative (inactive)
same,carcinogen call,"rat, strain Fischer 344, males, in feed, site: any site (literature study), lesion: several types, types named in the paper, dosed 103 weeks, study length 103 weeks",negative (inactive)
C/C=C/C=C/C=O,TD50,"mouse, strain B6C3F1, females, by gavage, site: forestomach, lesion: squamous-cell carcinoma + squamous-cell papilloma, dosed 104 weeks, study length 104 weeks",129 mg/kg/day
same,TD50,"mouse, strain B6C3F1, females, by gavage, site: forestomach, lesion: squamous-cell carcinoma, dosed 104 weeks, study length 104 weeks",580 mg/kg/day
same,TD50,"mouse, strain B6C3F1, females, by gavage, site: forestomach, lesion: squamous-cell papilloma, dosed 104 weeks, study length 104 weeks",165 mg/kg/day
same,TD50,"mouse, strain B6C3F1, females, by gavage, site: skin, lesion: fibrosarcoma + fibrous histiocytoma, dosed 104 weeks, study length 104 weeks",218 mg/kg/day
same,TD50,"mouse, strain B6C3F1, males, by gavage, site: any site (literature study), lesion: several types, types named in the paper, dosed 104 weeks, study length 104 weeks",279 mg/kg/day
same,TD50,"mouse, strain B6C3F1, males, by gavage, site: forestomach, lesion: squamous-cell carcinoma + squamous-cell papilloma, dosed 104 weeks, study length 104 weeks",279 mg/kg/day
same,TD50,"mouse, strain B6C3F1, males, by gavage, site: forestomach, lesion: squamous-cell papilloma, dosed 104 weeks, study length 104 weeks",354 mg/kg/day
same,TD50,"mouse, strain B6C3F1, males, by gavage, site: liver, lesion: hepatocellular adenoma + hepatoblastoma + hepatocellular carcinoma, dosed 104 weeks, study length 104 weeks",211 mg/kg/day
same,TD50,"mouse, strain B6C3F1, males, by gavage, site: lung, lesion: alveolar/bronchiolar adenoma + alveolar/bronchiolar carcinoma, dosed 104 weeks, study length 104 weeks",1980 mg/kg/day
same,TD50,"mouse, strain B6C3F1, males, by gavage, site: tongue, lesion: squamous-cell carcinoma, dosed 104 weeks, study length 104 weeks",2080 mg/kg/day
same,TD50,"rat, strain Fischer 344, females, by gavage, site: any site (literature study), lesion: several types, types named in the paper, dosed 104 weeks, study length 104 weeks",112 mg/kg/day
same,TD50,"rat, strain Fischer 344, females, by gavage, site: forestomach, lesion: squamous-cell papilloma, dosed 104 weeks, study length 104 weeks",102 mg/kg/day
same,TD50,"rat, strain Fischer 344, males, by gavage, site: adrenal medulla, lesion: pheochromocytoma, malignant, dosed 104 weeks, study length 104 weeks",415 mg/kg/day
same,TD50,"rat, strain Fischer 344, males, by gavage, site: any site (literature study), lesion: several types, types named in the paper, dosed 104 weeks, study length 104 weeks",107 mg/kg/day
same,TD50,"rat, strain Fischer 344, males, by gavage, site: forestomach, lesion: squamous-cell carcinoma + squamous-cell papilloma, dosed 104 weeks, study length 104 weeks",44.7 mg/kg/day
same,TD50,"rat, strain Fischer 344, males, by gavage, site: forestomach, lesion: squamous-cell papilloma, dosed 104 weeks, study length 104 weeks",46.1 mg/kg/day
